This note sets out measurements from patent US10626095B2, “Cyanotriazole compounds” (OTSUKA PHARMACEUTICAL CO., LTD., priority 2013, dated 2020).

For experiment [1], the system named is Zucker Diabetic Fatty (ZDF) rat. The experiment is described as follows: Meal load test in type 2 diabetic model rats (postprandial blood glucose). In kind it is in vivo. Further details: unit not given here. Particulars: ZDF rats fasted overnight, oral 30 mg/kg in 5% Arabia gum, blood glucose one hour after meal loading (50 kcal/kg). The method, then:
Effects on Type 2 Diabetes: Meal Load Test
To evaluate whether a cyanotriazol compound improves diabetes or not, especially related to postprandial blood glucose, meal load test was performed using one of type 2 diabetic model rats, the Zucker Diabetic Fatty (ZDF) rat (Charles river, Japan). About 24 animals fasted overnight (17 h) were taken blood samples from the tail veins, and measured blood glucose levels (Pre BG) and body weights (BW). Proper animals were selected and divided into […] (n=6) based on the Pre BG and BW using SAS Statistical Analysis System (SAS institute Japan Ltd. Release 9.1). The compounds to be tested (10 or 30 mg/kg body weight in 5% Arabia gum) or Arabia gum solution only (vehicle group) were orally administrated via gavage two hours prior to or just before meal loading (50 kcal/kg body weight). The meal suspension was prepared by mixing purified AIN-93G (Norsan Corp, Yokohama, Japan) and distilled water (2:3, w/v). One-hour after meal loading, blood glucose (BG1h) of each animal was measured. Effectiveness of each compound was shown by ? BG1h (BG1h difference between compound group and vehicle group). Although a set of 24 animals was used several times (from 13 weeks to 21 weeks of age), at least a one-week interval was placed from one to another test.

For experiment [2], the system named is NaCT-CHO (CHO cells stably expressing human NaCT). The experiment is described as follows: Assay of the citric acid cycle activation ([1,5-14C]-citric acid, diffusion of [14C]-CO2). In kind it is cell-based. As to conditions: 1 hour incubation at 37° C. with [1,5-14C]-citric acid. Summed up: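 NaCT-CHO cells (pME-CHO empty-vector cells for non-specific counts) were incubated 1 h at 37 °C in Na+-containing HEPES-Tris pH 7.4 with compound plus an equal volume of 0.4 mM [1,5-14C]-citric acid solution. Residual cell radioactivity was counted, [14C]-CO2 diffusion was taken as (Total−R)/(Total−NS)×100%, and EC50 was derived by regression.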

On to `CC(C)c1oc(-c2ccc(Cl)cc2)nc1-c1nn(C(C)OC(=O)OCC(C)(C)C(=O)O)nc1C#N` (stereo not shown) [Example 1822, 3-(1-{4-[2-(4-chloro-phenyl)-5-isopropyl-oxazol-4-yl]-5-cyano-2H-[1,2,3]triazol-2-yl}-ethoxycarbonyloxy)-2,2-dimethyl-propionic acid], for which the “BG1h (BG1h difference between compound group and vehicle group)” value in experiment [1] is −36.0.

Take `CC(OC(=O)OCCO)n1nc(C#N)c(-c2cccc(OCc3cc(C(F)(F)F)ccc3C(F)(F)F)c2)n1` (stereo not shown) [Example 1828, carbonic acid 1-{4-[3-(2,5-bis-trifluoromethylbenzyloxy)phenyl]-5-cyano-2H-[1,2,3]triazol-2-yl}ethyl ester-2-hydroxyethyl ester]: the “BG1h (BG1h difference between compound group and vehicle group)” value in experiment [1] was −69.3.

On to `CC(OC(=O)OCC(C)(C)C(=O)O)n1nc(C#N)c(-c2csc(-c3ccc(Cl)c(Cl)c3)n2)n1` (stereo not shown) [Example 1819, 3-(1-{4-cyano-5-[2-(3,4-dichloro-phenyl)-thiazol-4-yl]-2H-[1,2,3]triazol-2-yl}-ethoxycarbonyloxy)-2,2-dimethyl-propionic acid], for which, in experiment [1], the “BG1h (BG1h difference between compound group and vehicle group)” value was −54.3.

Turning to `CC(OC(=O)OC(C)(C)CC(=O)O)n1nc(C#N)c(-c2cccc(OCc3cc(C(F)(F)F)ccc3C(F)(F)F)c2)n1` (stereo not shown) [Example 1827, 3-(1-{4-[3-(2,5-bis-trifluoromethylbenzyloxy)phenyl]-5-cyano-2H-[1,2,3]triazol-2-yl}ethoxycarbonyloxy)-3-methylbutyric acid], the “BG1h (BG1h difference between compound group and vehicle group)” value in experiment [1] was −82.5.

For the compound `Cc1sc(-c2ccc(C(F)(F)F)cc2)nc1-c1nn(C(C)OC(=O)OCC(C)(C)C(=O)O)nc1C#N` (stereo not shown) [Example 1820, 3-(1-{4-cyano-5-[5-methyl-2-(4-trifluoromethyl-phenyl)-thiazol-4-yl]-2H-[1,2,3]triazol-2-yl}-ethoxycarbonyloxy)-2,2-dimethyl-propionic acid], the “BG1h (BG1h difference between compound group and vehicle group)” value in experiment [1] is reported as −77.0.

Regarding `COc1cc(-c2cc(C(F)(F)F)ccn2)cc(-c2nn(C(C)OC(=O)OCC(C)(C)C(=O)O)nc2C#N)c1` (stereo not shown) [Example 1812, 3-(1-{4-cyano-5-[3-methoxy-5-(4-trifluoromethyl-pyridin-2-yl)-phenyl]-2H-[1,2,3]triazol-2-yl}-ethoxycarbonyloxy)-2,2-dimethyl-propionic acid], the “BG1h (BG1h difference between compound group and vehicle group)” value in experiment [1] is −111.8.

With `CC(=O)OCn1nc(C#N)c(-c2cc(C)cc(-c3nccc(C(F)(F)F)n3)c2)n1` [Example 1829, acetic acid 4-cyano-5-[3-methyl-5-(4-trifluoromethylpyrimidin-2-yl)phenyl]-2H-[1,2,3]triazol-2-ylmethyl ester], the “BG1h (BG1h difference between compound group and vehicle group)” value in experiment [1] was −93.7.

As for `N#Cc1[nH]nnc1-c1cc(-c2ccc(C(F)(F)F)nc2)cc(C2CC2)c1` [Example 12, 5-[3-cyclopropyl-5-(6-trifluoromethyl-pyridin-3-yl)-phenyl]-3H-[1,2,3]triazole-4-carbonitrile], a half-maximal effect in experiment [2] (EC50) was put at 690 nM.

In experiment [2], `Cc1nc(-c2cccc(C(F)(F)F)c2)sc1-c1nn[nH]c1C#N` [Example 114, 5-[4-methyl-2-(3-trifluoromethyl-phenyl)-thiazol-5-yl]-3H-[1,2,3]triazole-4-carbonitrile] came in with an EC50 of 450 nM.

In experiment [2], `N#Cc1[nH]nnc1-c1csc(OCc2ccc(Cl)cc2)n1` [Example 82, 5-[2-(4-chloro-benzyloxy)-thiazol-4-yl]-3H-[1,2,3]triazole-4-carbonitrile] gave a concentration giving a half-maximal response (EC50) of 760 nM.

For the compound `N#Cc1[nH]nnc1-c1sc(-c2ccc(F)c(Cl)c2)nc1C(F)(F)F` [Example 116, 5-[2-(3-chloro-4-fluoro-phenyl)-4-trifluoromethyl-thiazol-5-yl]-3H-[1,2,3]triazole-4-carbonitrile], in experiment [2], the EC50 is 4130 nM.

Regarding `N#Cc1[nH]nnc1-c1ccc(Oc2cccc(C(F)(F)F)c2)c(F)c1` [Example 72, 5-[3-fluoro-4-(3-trifluoromethyl-phenoxy)-phenyl]-3H-[1,2,3]triazole-4-carbonitrile], in experiment [2], the concentration for a half-maximal effect (EC50) was 300 nM.

Regarding `Cc1cc(-c2cc(F)cc(C(F)(F)F)c2)cc(-c2nn[nH]c2C#N)c1` [Example 31, 5-(5′-fluoro-5-methyl-3′-trifluoromethyl-biphenyl-3-yl)-3H-[1,2,3]triazole-4-carbonitrile], the EC50 in experiment [2] was found to be 380 nM.

In the case of `N#Cc1[nH]nnc1-c1cccc(CN2CCc3ccccc32)c1` [Example 36, 5-[3-(2,3-dihydro-indol-1-ylmethyl)-phenyl]-3H-[1,2,3]triazole-4-carbonitrile], a half-maximal response in experiment [2] (EC50) required 450 nM.

`N#Cc1[nH]nnc1-c1cc(Cl)ccc1-c1cccc(C(F)(F)F)c1` [Example 4, 5-(4-chloro-3′-trifluoromethyl-biphenyl-2-yl)-3H-[1,2,3]triazole-4-carbonitrile] showed a concentration for a half-maximal effect (EC50) in experiment [2] of 240 nM.

`N#Cc1[nH]nnc1-c1cccc(/C=C\c2cc(C(F)(F)F)cc(C(F)(F)F)c2)c1` [Example 53, 5-{3-[(Z)-2-(3,5-bis-trifluoromethyl-phenyl)-vinyl]-phenyl}-3H-[1,2,3]triazole-4-carbonitrile]: in experiment [2], the response was half-maximal at 480 nM (EC50).

`N#Cc1[nH]nnc1-c1sccc1-c1cc(C(F)(F)F)cc(C(F)(F)F)c1` [Example 126, 5-[3-(3,5-bis-trifluoromethyl-phenyl)-thiophen-2-yl]-3H-[1,2,3]triazole-4-carbonitrile] displayed a concentration for a half-maximal effect (EC50) in experiment [2] of 260 nM.

Turning to `N#Cc1[nH]nnc1-c1cc(CCc2cccc(C(F)(F)F)n2)cc(C(F)(F)F)c1` [Example 39, 5-{3-trifluoromethyl-5-[2-(6-trifluoromethyl-pyridin-2-yl)-ethyl]-phenyl}-3H-[1,2,3]triazole-4-carbonitrile], in experiment [2], the concentration for a half-maximal effect (EC50) worked out at 710 nM.

In turn, `N#Cc1[nH]nnc1-c1cc(Cl)cc(Cc2cc(C(F)(F)F)ccc2C(F)(F)F)c1` [Example 35, 5-[3-(2,5-bis-trifluoromethyl-benzyl)-5-chloro-phenyl]-3H-[1,2,3]triazole-4-carbonitrile] displayed a concentration for a half-maximal effect (EC50) in experiment [2] of 340 nM.

For the compound `N#Cc1[nH]nnc1-c1cc(C(F)(F)F)ccc1/C=C/c1ccccc1` [Example 6, 5-[2-((E)-styryl)-5-trifluoromethyl-phenyl]-3H-[1,2,3]triazole-4-carbonitrile], the EC50 in experiment [2] was found to be 400 nM.

In experiment [2], `CCCc1sc(-c2cccc(C(F)(F)F)c2)nc1-c1nn[nH]c1C#N` [Example 104, 5-[5-propyl-2-(3-trifluoromethyl-phenyl)-thiazol-4-yl]-3H-[1,2,3]triazole-4-carbonitrile] displayed a half-maximal effective concentration (EC50) of 700 nM.

The compound `CCCCCCc1nc(-c2nn[nH]c2C#N)cs1` [Example 87, 5-(2-hexyl-thiazol-4-yl)-3H-[1,2,3]triazole-4-carbonitrile] returned a concentration giving a half-maximal response (EC50) in experiment [2] of 900 nM.

Compound `Cc1sc(-c2ccc(Cl)cc2)nc1-c1nn[nH]c1C#N` [Example 89, 5-[2-(4-chloro-phenyl)-5-methyl-thiazol-4-yl]-3H-[1,2,3]triazole-4-carbonitrile] registered an EC50 in experiment [2] of 760 nM.

Take `N#Cc1[nH]nnc1-c1cccc(/C=C/c2ccc(C(F)(F)F)cn2)c1` [Example 48, 5-{3-[(E)-2-(5-trifluoromethyl-pyridin-2-yl)-vinyl]-phenyl}-3H-[1,2,3]triazole-4-carbonitrile]: the EC50 in experiment [2] is 430 nM.

For `COc1cc(OCc2cc(C(F)(F)F)ccc2C(F)(F)F)cc(-c2nn[nH]c2C#N)c1` [Example 62, 5-[3-(2,5-bis-trifluoromethyl-benzyloxy)-5-methoxy-phenyl]-3H-[1,2,3]triazole-4-carbonitrile], a half-maximal effect in experiment [2] (EC50) was put at 600 nM.

Consider `CCCc1sc(-c2ccc(Cl)cc2)nc1-c1nn[nH]c1C#N` [Example 103, 5-[2-(4-chloro-phenyl)-5-propyl-thiazol-4-yl]-3H-[1,2,3]triazole-4-carbonitrile], for which the midpoint of the response in experiment [2], the EC50, lay at 230 nM.

Take `N#Cc1[nH]nnc1-c1nc(-c2ccc(OC(F)(F)F)cc2)cs1` [Example 74, 5-[4-(4-trifluoromethoxy-phenyl)-thiazol-2-yl]-3H-[1,2,3]triazole-4-carbonitrile]: in experiment [2], the half-maximal effective concentration (EC50) was 2910 nM.

`N#Cc1ccc(-c2nn[nH]c2C#N)cc1/C=C/c1cccc(C(F)(F)F)c1` [Example 45, 5-{4-cyano-3-[(E)-2-(3-trifluoromethyl-phenyl)-vinyl]-phenyl}-3H-[1,2,3]triazole-4-carbonitrile] returned an EC50 in experiment [2] of 910 nM.

In the case of `N#Cc1[nH]nnc1-c1sccc1-c1cccc(OCc2cc(C(F)(F)F)ccc2C(F)(F)F)c1` [Example 127, 5-{3-[3-(2,5-bis-trifluoromethyl-benzyloxy)-phenyl]-thiophen-2-yl}-3H-[1,2,3]triazole-4-carbonitrile], the half-maximal effective concentration (EC50) in experiment [2] turned out to be 740 nM.

As for `N#Cc1[nH]nnc1-c1ccc2ccn(-c3ccc(F)c(F)c3)c2c1` [Example 145, 5-[1-(3,4-difluoro-phenyl)-1H-indol-6-yl]-3H-[1,2,3]triazole-4-carbonitrile], the EC50 in experiment [2] amounted to 370 nM.

In experiment [2], `CCc1sc(-c2cccc(C(F)(F)F)c2)nc1-c1nn[nH]c1C#N` [Example 99, 5-[5-ethyl-2-(3-trifluoromethyl-phenyl)-thiazol-4-yl]-3H-[1,2,3]triazole-4-carbonitrile] gave an EC50 of 540 nM.

The EC50 is the concentration at which the effect is half-maximal.
